Experimental data from US6861431B2, “Compounds capable of modulating the activity of multidrug transporters and therapeutic use of the same” (The Board of Trustees of the University of Illinois, priority 2001, dated 2005).
Where two headings read alike, the source gives them in different places. Starred links: 1 amine or outer side, 2 acyl side, 3 side chain; linkers in the order of their positions; H or OH if unused. Positions of bridges follow the written chain, without caps; N, C: chain ends. Non-standard residues stand in square brackets, D forms with d. Residues, ends and D or L forms follow the SMILES beside them. Chains are numbered I, II in the order given. Actinocin(9to1) = Cc1c2oc3c(C)ccc(C(=O)[*:1])c3nc-2c(C(=O)[*:2])c(N)c1=O; NMeV = CN[C@H](C(=O)O)C(C)C; Sar = CNCC(=O)O

Columns and labels:
ConA cells = assay: Drug sensitivity (growth inhibition) assay, ConA cells; assay type: cell-based, mouse; settings: for Change in sensitivity (x-fold): Compound 102 (10 μM), fold resistance; for Effect of Compound 102 on drug sensitivity of cell lines: ConA (Balb 3T3): P-gp-positive ConA cells, label = drug
Protocol: Drug sensitivity assays. To estimate drug-mediated growth inhibition, 10^3 cells were plated per well of 96-well plates, and incubated with a range of concentrations of drugs added 24 hours after plating. […] After elution by 1% SDS solution, optical density was determined on a Multiscan Ascent reader (Lybsystems, Helsinki, Finland) at 650 nm.

P-gp [1] = system: P-gp
Protocol: Drug sensitivity assays. To estimate drug-mediated growth inhibition, 10^3 cells were plated per well of 96-well plates, and incubated with a range of concentrations of drugs added 24 hours after plating. After 5 to […] of drug treatment, plates were fixed and stained using 2% methylene blue solution in 50% methanol. After elution by 1% SDS solution, optical density was determined on a Multiscan Ascent reader (Lybsystems, Helsinki, Finland) at 650 nm.
(§1) Drug accumulation and efflux assay. […] For drug efflux assay, cells after drug incubation were washed thoroughly with PBS, incubated in a drug-free media with or without compounds from the chemical library, and harvested at different time points for flow cytometric analysis (18).

P-gp [2] = assay: Rho123 accumulation in ConA cells; assay type: cell-based, mouse; design: effect on Rho123 efflux/accumulation: dose or concentration left out as unconfirmed; settings: two hours with Rho123, flow cytometry (FIG. 8)
Protocol: Screening of a chemical library. Murine fibroblastoid cell line (ConA) was selected as the readout system for screening a chemical library for P-gp activators. […] Rho123, a classic fluorescent P-gp substrate that is detected easily using multichannel fluorimeter in living cells, was used as an efflux indicator. […] Primary screening was performed on ConA cells for compounds that interfere with Adr-induced activation of p53-responsive reporter LacZ gene as previously described (11). To identify P-gp modulators, all “hits” isolated after primary screening were tested for their ability to modulate cellular accumulation of Rho123. Con A cells grown in 96-well plates were incubated 4 hours with 0.5 μM Rho123 in combination with individual library compounds (2 μg/ml (2-5 μM)), and cell fluorescence was analyzed using fluorescent microscopy.
as §1
(§2) ConA cells were incubated two hours with Rho123 ([…]) or daunorubicin (500 ng/ml) in the presence of the identified compounds, and accumulation of the drugs was quantitated by flow cytometry.

P-gp [3] = assay: Daunorubicin accumulation in ConA cells; assay type: cell-based, mouse; settings: for effect on daunorubicin accumulation: ConA cells, two hours with daunorubicin (500 ng/ml), flow cytometry (FIG. 8)
Protocol: Drug accumulation and efflux assay. […] For drug efflux assay, cells after drug incubation were washed thoroughly with PBS, incubated in a drug-free media with or without compounds from the chemical library, and harvested at different time points for flow cytometric analysis (18). […]
as §2

mouse ConA cells = assay: DMBA sensitivity of mouse cells; assay type: cell-based
Protocol: The effect of the identified compounds on DMBA sensitivity of mouse cells also was tested. It has been reported that ABC type transporters (e.g., P-gp) are involved in the efflux of polycyclic aromatic hydrocarbon carcinogens from cells. The effect of the identified compounds on sensitivity of mouse cells to 7,12-dimethylbenz[a]anthracene (DMBA) was determined. […].

[4] = label = P-gp substrate drug, three groups

Cc1c2oc3c(C)ccc(C(=O)N[C@@H]4C(=O)N[C@H](C(C)C)C(=O)N5CCC[C@H]5C(=O)N(C)CC(=O)N(C)[C@@H](C(C)C)C(=O)O[C@@H]4C)c3nc-2c(C(=O)N[C@@H]2C(=O)N[C@H](C(C)C)C(=O)N3CCC[C@H]3C(=O)N(C)CC(=O)N(C)[C@@H](C(C)C)C(=O)O[C@@H]2C)c(N)c1=O [Actinomycin D, actinomycin D] (I: T[dV]P[Sar][NMeV] / II: T[dV]P[Sar][NMeV]; ester I:1-I:C, II:1-II:C; linker I:N-II:N via Actinocin(9to1))
Change in sensitivity (x-fold) (ConA cells; ConA cells): 1 x-fold
LD50 (ConA cells; ConA cells, drug alone): 20 ng/mL
LD50 comp (ConA cells; ConA cells, drug in the presence of Compound 102 (10 μM)): 20 ng/mL
cytotoxicity of the drug in the presence of Compound 102 (P-gp [1]): do not change their cytotoxicity

CN[C@H]1CCc2cc(OC)c(OC)c(OC)c2-c2ccc(OC)c(=O)cc21 [Colcemide, colcemid]
cytotoxicity of the drug in the presence of Compound 102 (P-gp [1]; [4]): do not change their cytotoxicity

COc1cc2c(c(OC)c1OC)-c1ccc(OC)c(=O)cc1[C@@H](NC(C)=O)CC2 [Colchicine, colchicine]
Effect of Compound 102 on drug sensitivity of cell lines: ConA (Balb 3T3) (ConA cells): S

Cc1cc(C)n(CC(O)Cn2c3ccccc3c3ccccc32)n1 (centres unmarked) [Compound 2, 1-Carbazol-9-yl-3-(3,5-dimethyl-pyrazol-1-yl)-propan-2-ol]
effect on Rho123 efflux/accumulation (P-gp [2]): relatively effective
effect on daunorubicin accumulation (P-gp [3]): weak influence

Cc1cc(OCC(=O)Nc2ccc3nn(-c4ccccc4)nc3c2)cc(C)c1Cl [Compound 7, 2-(4-Chloro-3,5-dimethyl-phenoxy)-N-(2-phenyl-2H-benzotriazol-5-yl)-acetamide]
effect on Rho123 efflux/accumulation (P-gp [2]): relatively effective
effect on daunorubicin accumulation (P-gp [3]): weak influence

Cc1ccc2c(C)nc(N/C(N)=N/C(=O)Cc3ccc(Cl)cc3)nc2c1 [Compound 8, N-[2-(4-Chloro-phenyl)-acetyl]-N′-(4,7-dimethyl-quinazolin-2-yl)-guanidine]
effect on Rho123 efflux/accumulation (P-gp [2]): relatively effective
effect on daunorubicin accumulation (P-gp [3]): weak influence

COc1cc2cnc3c(c(Cc4ccccc4)nn3-c3ccccc3)c2cc1OC [Compound 9, 1-Benzyl-7,8-dimethoxy-3-phenyl-3H-pyrazolo[3,4-c]isoquinoline]
effect on Rho123 efflux/accumulation (P-gp [2]): relatively effective
effect on daunorubicin accumulation (P-gp [3]): weak influence

Cc1ccc(OCC(=O)Nc2ccc(O)c(-c3nc4ccccc4o3)c2)cc1 [Compound 10, N-(3-Benzooxazol-2-yl-4-hydroxy-phenyl)-2-p-tolyloxy-acetamide]
effect on Rho123 efflux/accumulation (P-gp [2]): relatively effective
effect on daunorubicin accumulation (P-gp [3]): weak influence

C=CCn1c2ccccc2n2cc(-c3ccccc3)nc12 [Compound 11, 8-Allyl-2-phenyl-8H-1,3a,8-triaza-cyclopenta[a]indene]
protection of cells from cytotoxicity of DMBA (mouse ConA cells): strong protective effect
effect on Rho123 efflux/accumulation (P-gp [2]): strong effect
effect on daunorubicin accumulation (P-gp [3]): two to four times less pronounced effect

COc1ccccc1-c1nc(Cc2ccc(Cl)cc2)no1 [Compound 12, 3-(4-Chloro-benzyl)-5-(2-methoxy-phenyl)-[1,2,4]oxadiazole]
stimulation of P-gp-mediated efflux of daunorubicin relative to Rho123 (P-gp [3]; ConA cells (FIG. 8)): more effective

Nc1nc(SCCc2ccccc2)nc2sc3c(c12)CCCC3 [Compound 13, 2-Phenethylsulfanyl-5,6,7,8-tetrahydro-benzo[4,5]thieno[2,3-d]pyrimidin-4-ylamine]
protection of cells from cytotoxicity of DMBA (mouse ConA cells): strong protective effect
effect on Rho123 efflux/accumulation (P-gp [2]): strong effect
effect on daunorubicin accumulation (P-gp [3]): two to four times less pronounced effect

CCOC(=O)Cn1c2ccccc2c2nc3cc4ccccc4cc3nc21 [Compound 14, (5,12,13-Triaza-indeno[1,2-b]anthracen-13-yl)-acetic acid ethyl ester]
effect on daunorubicin accumulation (P-gp [3]): no effect

Oc1ccccc1-c1nc(-c2ccccc2O)n(-c2ccccc2)n1 [Compound 15, 2,2′-(1-phenyl-1H-1,2,4-triazole-3,5-diyl)bis-phenol]
effect on Rho123 efflux/accumulation (P-gp [2]): relatively effective
effect on daunorubicin accumulation (P-gp [3]): weak influence

Cc1ccc(-c2nnc(-c3ccccc3Cl)o2)s1 [Compound 16, 2-(2-Chloro-phenyl)-5-(5-methyl-thiophen-2-yl)-[1,3,4]oxadiazole]
protection of cells from cytotoxicity of DMBA (mouse ConA cells): strong protective effect
effect on Rho123 efflux/accumulation (P-gp [2]): relatively effective
effect on daunorubicin accumulation (P-gp [3]): weak influence

COc1cccc2c1C(=O)c1c(O)c3c(c(O)c1C2=O)C[C@@](O)(C(C)=O)C[C@@H]3O[C@H]1C[C@H](N)[C@H](O)[C@H](C)O1 [Daunorubicin, daunorubicin]
Change in sensitivity (x-fold) (ConA cells; ConA cells): 2.5 x-fold
Effect of Compound 102 on drug sensitivity of cell lines: ConA (Balb 3T3) (ConA cells): R
cytotoxicity of the drug in the presence of Compound 102 (P-gp [1]): less toxic

COc1cc([C@@H]2c3cc4c(cc3[C@@H](O[C@@H]3O[C@@H]5CO[C@@H](C)O[C@H]5[C@H](O)[C@H]3O)[C@H]3COC(=O)[C@H]23)OCO4)cc(OC)c1O [Etoposide, etoposide]
Change in sensitivity (x-fold) (ConA cells; ConA cells): 1.5 x-fold
Effect of Compound 102 on drug sensitivity of cell lines: ConA (Balb 3T3) (ConA cells): Minor R
cytotoxicity of the drug in the presence of Compound 102 (P-gp [1]): less toxic

CCOc1ccc(-c2nc3ccc(-c4nc5ccc(N6CCN(C)CC6)cc5[nH]4)cc3[nH]2)cc1 [Hoechst 33342]
Effect of Compound 102 on drug sensitivity of cell lines: ConA (Balb 3T3) (ConA cells): S?
cytotoxicity of the drug in the presence of Compound 102 (P-gp [1]; [4]): more potent

COc1ccc(C[C@H](N)C(=O)N[C@H]2[C@@H](O)[C@H](n3cnc4c(N(C)C)ncnc43)O[C@@H]2CO)cc1 [Puromycin, puromycin]
Change in sensitivity (x-fold) (ConA cells; ConA cells): 1 x-fold
cytotoxicity of the drug in the presence of Compound 102 (P-gp [1]): do not change their cytotoxicity

CC(=O)O[C@H]1C(=O)[C@@]2(C)[C@H]([C@H](OC(=O)c3ccccc3)[C@]3(O)C[C@H](OC(=O)[C@H](O)[C@@H](NC(=O)c4ccccc4)c4ccccc4)C(C)=C1C3(C)C)[C@]1(OC(C)=O)CO[C@@H]1C[C@@H]2O [Taxol, taxol]
Change in sensitivity (x-fold) (ConA cells; ConA cells): 0.3 x-fold
Effect of Compound 102 on drug sensitivity of cell lines: ConA (Balb 3T3) (ConA cells): S
cytotoxicity of the drug in the presence of Compound 102 (P-gp [1]): more potent

CC[C@]1(O)C[C@@H]2CN(CCc3c([nH]c4ccccc34)[C@@](C(=O)OC)(c3cc4c(cc3OC)N(C)[C@H]3[C@@](O)(C(=O)OC)[C@H](OC(C)=O)[C@]5(CC)C=CCN6CC[C@]43[C@@H]65)C2)C1 [Vinblastine, vinblastine]
Change in sensitivity (x-fold) (ConA cells; ConA cells): 0.5 x-fold
Effect of Compound 102 on drug sensitivity of cell lines: ConA (Balb 3T3) (ConA cells): S
cytotoxicity of the drug in the presence of Compound 102 (P-gp [1]): more potent

CC[C@]1(O)C[C@H]2CN(CCc3c([nH]c4ccccc34)[C@@](C(=O)OC)(c3cc4c(cc3OC)N(C=O)[C@H]3[C@@](O)(C(=O)OC)[C@H](OC(C)=O)[C@]5(CC)C=CCN6CC[C@]43[C@@H]65)C2)C1 [Vincristine, vincristine]
Change in sensitivity (x-fold) (ConA cells; ConA cells): 0.5 x-fold
Effect of Compound 102 on drug sensitivity of cell lines: ConA (Balb 3T3) (ConA cells): S
cytotoxicity of the drug in the presence of Compound 102 (P-gp [1]): more potent

C=C1[C@@H](C)[C@H]2[C@H](Cc3ccccc3)NC(=O)[C@]23[C@H](OC(C)=O)/C=C/[C@@](C)(O)C(=O)[C@@H](C)C/C=C/[C@H]3[C@@H]1O [cytochalasin D]
cytotoxicity of the drug in the presence of Compound 102 (P-gp [1]; [4]): do not change their cytotoxicity

Rhodamine 123
Effect of Compound 102 on drug sensitivity of cell lines: ConA (Balb 3T3) (ConA cells): R
cytotoxicity of the drug in the presence of Compound 102 (P-gp [1]): less toxic

gramicidin D [Gramicidine D]
Effect of Compound 102 on drug sensitivity of cell lines: ConA (Balb 3T3) (ConA cells): S
cytotoxicity of the drug in the presence of Compound 102 (P-gp [1]; [4]): more potent
